Assay results: patent publication US10052331B2, “3-(3H-imidazo[4,5-C]pyridin-2-yl)-1H-pyrazolo[3,4-C]pyridine and therapeutic uses thereof” (Samumed, LLC, priority 2014, dated 2018)

Columns and labels:
[1] = test system: primary human fibroblasts derived from IPF patients (LL29 cells); assay: Inhibition of fibrotic process: αSMA staining in TGF-β1-treated primary human fibroblasts from IPF patients (LL29 cells); type: cell-based; settings: Fibroblast, 96 h, LL29 cells treated with TGF-β1 (20 ng/mL), 4 days, 11-point dose-response from 10 μM to 1.87 nM, read-out: Inhibition of fibrosis EC50
From the text: The above synthesized compounds were screened using primary human fibroblasts (derived from IPF patients) treated with TGF-β1 to determine their ability to inhibit the fibrotic process.
Primary human fibroblasts derived from IPF patients (LL29 cells) [^1Xiaoqiu Liu, et. al., “Fibrotic Lung Fibroblasts Show Blunted Inhibition by cAMP Due to Deficient cAMP Response Element-Binding Protein Phosphorylation”, Journal of Pharmacology and Experimental Therapeutics (2005), 315(2), 678-687; ^2Watts, K. L., et. al., “RhoA signaling modulates cyclin D1 expression in human lung fibroblasts; implications for idiopathic pulmonary fibrosis”, Respiratory Research (2006), 7(1), 88] were obtained from American Type Culture Collection (ATCC) and expanded in F12 medium supplemented with 15% Fetal Bovine Serum and Penicillin/Streptomycin.
Each compound was dissolved in DMSO as a 10 mM stock and used to prepare compound source plates. Serial dilution (1:2, 11-point dose-response curves from 10 μM to 1.87 nM) and compound transfer was performed using the ECHO 550 (Labcyte, Sunnyvale, Calif.) into 384-well clear bottom assay plates (Greiner Bio-One) with appropriate DMSO backfill for a final DMSO concentration of 0.1%. LL29 cells were plated at 1,500 cells/well in 80 μl/well F12 medium supplemented with 1% Fetal Bovine Serum. One hour after addition of the cells, TGF-β1 (Peprotech; 20 ng/mL) was added to the plates to induce fibrosis (ref. 1 and 2 above). Wells treated with TGF-β1 and containing DMSO were used as controls. Cells were incubated at 37° C. and 5% CO2 for 4 days. Following incubation for 4 days, SYTOX green nucleic acid stain (Life Technologies [Thermo Fisher Scientific]) was added to the wells at a final concentration of 1 uM and incubated at room temperature for 30 min. Cells were then fixed using 4% formaldehyde (Electron Microscopy Sciences), washed 3 times with PBS followed by blocking and permeabilization using 3% Bovine Serum Albumin (BSA; Sigma) and 0.3% Triton X-100 (Sigma) in PBS. Cells were then stained with antibody specific to α-smooth muscle actin (αSMA; Abcam) (ref. 1 and 2 above) in 3% Bovine Serum Albumin (BSA; Sigma) and 0.3% Triton X-100 (Sigma) in PBS, and incubated overnight at 4° C. Cells were then washed 3 times with PBS, followed by incubation with Alexa Flor-647 conjugated secondary antibody (Life Technologies [Thermo Fisher Scientific]) and DAPI at room temperature for 1 hour. Cells were then washed 3 times with PBS and plates were sealed for imaging. αSMA staining was imaged by excitation at 630 nm and emission at 665 nm and quantified using the Compartmental Analysis program on the CellInsight CX5 (Thermo Scientific). Dead or apoptotic cells were excluded from analysis based on positive SYTOX green staining. % of total cells positive for αSMA were counted in each well and normalized to the average of 11 wells treated with TGF-β1 on the same plate using Dotmatics' Studies Software. The normalized averages (fold change over untreated) of 3 replicate wells for each compound concentration were used to create dose-responses curves and EC50 values were calculated using non-linear regression curve fit in the Dotmatics' Studies Software. The EC50 values are reported.

[2] = test system: Wnt activity (Wnt-responsive Sp5 promoter-luciferase reporter in SW480 cells); assay: Wnt activity screening assay: Sp5-Luc reporter gene in SW480 colon carcinoma cells; type: cell-based; settings: Homo sapiens
From the text: The screening assay for Wnt activity is described as follows. Reporter cell lines can be generated by stably transducing cancer cell lines (e.g., colon cancer) or primary cells (e.g., IEC-6 intestinal cells) with a lentiviral construct that includes a Wnt-responsive promoter driving expression of the firefly luciferase gene.
SW480 colon carcinoma cells were transduced with a lentiviral vector expressing luciferase with a human Sp5 promoter consisting of a sequence of eight TCF/LEF binding sites. SW480 cells stably expressing the Sp5-Luc reporter gene and a hygromycin resistance gene were selected by treatment with 150 μg/ml of hygromycin for 7 days. These stably transduced SW480 cells were expanded in cell culture and used for all further screening activities. For Sp5-Luc reporter gene assays, the cells were plated at 10,000 cells/well in 96-well plates with growth medium containing 10% fetal calf serum and incubated overnight at 37° C. and 5% CO2. Each compound was dissolved in DMSO as a 10 mM stock in standard j-vials and used to prepare compound source plates in dose-response format with 3-fold serial dilutions and a 10 mM top concentration. Compound transfer from serially diluted source plates to assay plates containing the cells was accomplished using a pintool (Multimek 96, Beckman equipped with V&P Scientific FP1S50H pins) based liquid handling protocol. This protocol used a slotted pin to transfer 50 nl of compound from a source plate well to an assay plate well containing 50 μl of cells in growth medium. […] Control wells received 50 nl of DMSO treatment for normalization and calculating IC50 values. The treated cells were incubated at 37° C. and 5% CO2 for an additional forty-two hours. Following incubation, the growth medium was removed and 50 μl of BrightGlo luminescence reagent (Promega) was added to each well of the 96-well assay plates. The plates were placed on an orbital shaker for 5 min and then luminescence was quantified on the Victor3 (Perkin Elmer) plate reader. Readings were normalized to DMSO only treated cells, and normalized activities were utilized for IC50 calculations using the dose-response log (inhibitor) vs. response-variable slope (four parameters) nonlinear regression feature available in GraphPad Prism 5.0 or 6.0.

Row | IC50 [2] | SMILES | EC50 [1]
1 | 29.4 nM | CCCCC(=O)Nc1cncc(-c2cc3c(-c4nc5c(-c6cccc(F)c6)cncc5[nH]4)n[nH]c3cn2)c1 [Compound 18, N-(5-(3-(7-(3-Fluorophenyl)-3H-imidazo[4,5-c]pyridin-2-yl)-1H-pyrazolo[3,4-c]pyridin-5-yl)pyridin-3-yl)pentanamide] | 143 nM
2 | 70.4 nM | Nc1cncc(-c2cc3c(-c4nc5c(-c6ccccc6F)cncc5[nH]4)n[nH]c3cn2)c1 [Compound 55, 5-(3-(7-(2-Fluorophenyl)-3H-imidazo[4,5-c]pyridin-2-yl)-1H-pyrazolo[3,4-c]pyridin-5-yl)pyridin-3-amine] | ≤ 9 nM
3 | 772 nM | Fc1ccc(-c2cncc3[nH]c(-c4n[nH]c5cnc(-c6cncc(CN7CCCC7)c6)cc45)nc23)s1 [Compound 326, 3-(7-(5-Fluorothiophen-2-yl)-3H-imidazo[4,5-c]pyridin-2-yl)-5-(5-(pyrrolidin-1-ylmethyl)pyridin-3-yl)-1H-pyrazolo[3,4-c]pyridine] | ≤ 9 nM
4 | 6.5 nM | CCCC(=O)Nc1cncc(-c2cc3c(-c4nc5c(-c6ccc(C)s6)cncc5[nH]4)n[nH]c3cn2)c1 [Compound 355, N-(5-(3-(7-(5-Methylthiophen-2-yl)-3H-imidazo[4,5-c]pyridin-2-yl)-1H-pyrazolo[3,4-c]pyridin-5-yl)pyridin-3-yl)butyramide] | 148 nM
5 | > 10000 nM | O=C(Nc1cncc(-c2cc3c(-c4nc5c(-c6ccccn6)cncc5[nH]4)n[nH]c3cn2)c1)c1ccccc1 [Compound 141, N-(5-(3-(7-(Pyridin-2-yl)-3H-imidazo[4,5-c]pyridin-2-yl)-1H-pyrazolo[3,4-c]pyridin-5-yl)pyridin-3-yl)benzamide] | ≥ 9990 nM
6 | 774 nM | CS(=O)(=O)NCc1cc(F)cc(-c2cncc3[nH]c(-c4n[nH]c5cnc(-c6cncc(NC(=O)c7ccccc7)c6)cc45)nc23)c1 [Compound 401, N-(5-(3-(7-(3-Fluoro-5-(methylsulfonamidomethyl)phenyl)-3H-imidazo[4,5-c]pyridin-2-yl)-1H-pyrazolo[3,4-c]pyridin-5-yl)pyridin-3-yl)benzamide] | ≥ 9990 nM
7 | 37.6 nM | CC(C)Nc1cncc(-c2cc3c(-c4nc5c(-c6ccoc6)cncc5[nH]4)n[nH]c3cn2)c1 [Compound 272, 5-(3-(7-(Furan-3-yl)-3H-imidazo[4,5-c]pyridin-2-yl)-1H-pyrazolo[3,4-c]pyridin-5-yl)-N-isopropylpyridin-3-amine] | ≤ 9 nM
8 | 40.2 nM | CCNCc1cncc(-c2cc3c(-c4nc5c(-c6ccccc6F)cncc5[nH]4)n[nH]c3cn2)c1 [Compound 58, N-((5-(3-(7-(2-Fluorophenyl)-3H-imidazo[4,5-c]pyridin-2-yl)-1H-pyrazolo[3,4-c]pyridin-5-yl)pyridin-3-yl)methyl)ethanamine] | 41 nM
9 | 25.4 nM | CCNCc1cncc(-c2cc3c(-c4nc5c(-c6ccc(C)s6)cncc5[nH]4)n[nH]c3cn2)c1 [Compound 344, N-((5-(3-(7-(5-Methylthiophen-2-yl)-3H-imidazo[4,5-c]pyridin-2-yl)-1H-pyrazolo[3,4-c]pyridin-5-yl)pyridin-3-yl)methyl)ethanamine] | 60 nM
10 | 1040 nM | Cc1ccc(-c2cncc3[nH]c(-c4n[nH]c5cnc(-c6cncc(CN7CCCCC7)c6)cc45)nc23)s1 [Compound 353, 3-(7-(5-Methylthiophen-2-yl)-3H-imidazo[4,5-c]pyridin-2-yl)-5-(5-(piperidin-1-ylmethyl)pyridin-3-yl)-1H-pyrazolo[3,4-c]pyridine] | 251 nM
11 | > 10000 nM | c1cncc(-c2cc3c(-c4nc5c(-c6cccnc6)cncc5[nH]4)n[nH]c3cn2)c1 [Compound 82, 5-(Pyridin-3-yl)-3-(7-(pyridin-3-yl)-3H-imidazo[4,5-c]pyridin-2-yl)-1H-pyrazolo[3,4-c]pyridine] | ≥ 9990 nM
12 | > 10000 nM | Fc1cccc(-c2cncc3[nH]c(-c4n[nH]c5cnc(C6CCNCC6)cc45)nc23)c1 [Compound 885, 3-(7-(3-Fluorophenyl)-3H-imidazo[4,5-c]pyridin-2-yl)-5-(piperidin-4-yl)-1H-pyrazolo[3,4-c]pyridine] | ≥ 9990 nM
13 | 2850 nM | c1cncc(-c2cncc3[nH]c(-c4n[nH]c5cnc(-c6cncc(CN7CCCCC7)c6)cc45)nc23)c1 [Compound 93, 5-(5-(Piperidin-1-ylmethyl)pyridin-3-yl)-3-(7-(pyridin-3-yl)-3H-imidazo[4,5-c]pyridin-2-yl)-1H-pyrazolo[3,4-c]pyridine] | ≥ 9990 nM
14 | > 10000 nM | CC(C)CC(=O)Nc1cncc(-c2cc3c(-c4nc5c(-c6cc(O)cc(F)c6)cncc5[nH]4)n[nH]c3cn2)c1 [Compound 1280, N-(5-(3-(7-(3-Fluoro-5-hydroxyphenyl)-3H-imidazo[4,5-c]pyridin-2-yl)-1H-pyrazolo[3,4-c]pyridin-5-yl)pyridin-3-yl)-3-methylbutanamide] | ≤ 9 nM
15 | > 10000 nM | CN1CCN(c2cncc3[nH]c(-c4n[nH]c5cnc(-c6cncc(N)c6)cc45)nc23)CC1 [Compound 211, 5-(3-(7-(4-Methylpiperazin-1-yl)-3H-imidazo[4,5-c]pyridin-2-yl)-1H-pyrazolo[3,4-c]pyridin-5-yl)pyridin-3-amine] | ≤ 9 nM
16 | 482 nM | CN(C)CCNc1cc(F)cc(-c2cncc3[nH]c(-c4n[nH]c5cnc(-c6cncc(N(C)C)c6)cc45)nc23)c1 [Compound 423] | 2030 nM
17 | 35.1 nM | O=C(Nc1cncc(-c2cc3c(-c4nc5c(-c6cccs6)cncc5[nH]4)n[nH]c3cn2)c1)C1CC1 [Compound 305, N-(5-(3-(7-(Thiophen-2-yl)-3H-imidazo[4,5-c]pyridin-2-yl)-1H-pyrazolo[3,4-c]pyridin-5-yl)pyridin-3-yl)cyclopropanecarboxamide] | > 10000 nM
18 | 46.7 nM | Cc1ccncc1-c1cc2c(-c3nc4c(-c5cc(F)cc(CNS(C)(=O)=O)c5)cncc4[nH]3)n[nH]c2cn1 [Compound 395, N-(3-Fluoro-5-(2-(5-(4-methylpyridin-3-yl)-1H-pyrazolo[3,4-c]pyridin-3-yl)-3H-imidazo[4,5-c]pyridin-7-yl)benzyl)methanesulfonamide] | ≤ 9 nM
19 | 866 nM | CCC(=O)Nc1cncc(-c2cc3c(-c4nc5c(N6CCCCC6)cncc5[nH]4)n[nH]c3cn2)c1 [Compound 157, N-(5-(3-(7-(Piperidin-1-yl)-3H-imidazo[4,5-c]pyridin-2-yl)-1H-pyrazolo[3,4-c]pyridin-5-yl)pyridin-3-yl)propionamide] | 1560 nM
